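96-well plates; 48 h exposure; 5 concentrations. Endpoints by linear interpolation between flanking doses. Not reached: highest tested concentration assigned. GI50 = concentration required for 50% inhibition of growth.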 Active and inactive are the calls of the source. Cut-off read from the data, not from the text of the source: active = GI50 up to about 1.1 µM and inactive = higher.
Legend:
Assay in all cases: DTP human tumour cell line panel, 48 h
[1] = test system: LOX IMVI
[2] = test system: 786-0
[3] = test system: CCRF-CEM
[4] = test system: HCT-116
[5] = test system: RPMI-8226
[6] = test system: SN12C
[7] = test system: SW-620
[8] = test system: UACC-62
[9] = test system: NCI-H522
[10] = test system: U-251
[11] = test system: SNB-19
[12] = test system: RXF 393
[13] = test system: UO-31
[14] = test system: COLO 205
[15] = test system: MDA-N
[16] = test system: NCI-H226
[17] = test system: KM12
[18] = test system: OVCAR-8
[19] = test system: SF-295
[20] = test system: NCI-H23
[21] = test system: MDA-MB-231
[22] = test system: BT-549
[23] = test system: OVCAR-5
[24] = test system: K562
[25] = test system: OVCAR-3
[26] = test system: PC-3
[27] = test system: DU-145
[28] = test system: SK-MEL-2
[29] = test system: CAKI-1
[30] = test system: HCT-15
[31] = test system: SK-MEL-5
[32] = test system: HT-29
[33] = test system: OVCAR-4
[34] = test system: UACC-257
[35] = test system: NCI-H460
[36] = test system: NCI/ADR-RES
[37] = test system: HCC 2998
[38] = test system: SK-OV-3
[39] = test system: SNB-75
[40] = test system: Malme-3M
[41] = test system: TK-10
[42] = test system: EKVX
[43] = test system: IGROV-1
[44] = test system: M14
[45] = test system: SR
[46] = test system: HOP-62
[47] = test system: SK-MEL-28
[48] = test system: MDA-MB-435
[49] = test system: A549
[50] = test system: MCF7
[51] = test system: HOP-92
[52] = test system: MOLT-4
[53] = test system: T47D
[54] = test system: ACHN
[55] = test system: SF-539
[56] = test system: HL-60
[57] = test system: SF-268
[58] = test system: A498

Measured: GI50

CNC(=O)N(CCC#N)CCN(CCN(C(=O)NC)c1ccccc1)C(=O)NC
inactive: [1] > 100 µM | [2] > 100 µM | [3] > 100 µM | [4] > 100 µM | [5] > 100 µM | [6] > 100 µM | [7] > 100 µM | [8] > 100 µM | [9] > 100 µM | [10] > 100 µM | [11] > 100 µM | [12] > 100 µM | [13] > 100 µM | [14] > 100 µM | [15] > 100 µM | [16] > 100 µM | [17] > 100 µM | [18] > 100 µM | [19] > 100 µM | [20] > 100 µM | [21] > 100 µM | [22] > 100 µM | [23] > 100 µM | [24] > 100 µM | [25] > 100 µM | [26] > 100 µM | [27] > 100 µM | [28] > 100 µM | [29] > 100 µM | [31] > 100 µM | [32] > 100 µM | [33] > 100 µM | [34] > 100 µM | [35] > 100 µM | [36] > 100 µM | [37] > 100 µM | [38] > 100 µM | [39] > 100 µM | [40] > 100 µM | [41] > 100 µM | [42] > 100 µM | [43] > 100 µM | [44] > 100 µM | [45] > 100 µM | [46] > 100 µM | [47] > 100 µM | [48] > 100 µM | [49] > 100 µM | [50] > 100 µM | [51] > 100 µM | [52] > 100 µM | [53] > 100 µM | [54] > 100 µM | [55] > 100 µM
> 100 µM: [30]

C=C(C)[C@@H]1CC[C@@]2(C)[C@H]1[C@H]1CCC3[C@@]4(C)CC[C@H](O)C(C)(C)[C@@H]4CC[C@@]3(C)[C@]1(C)C[C@@H]2O (stereo not given in full) [CALENDULADIOL]
18.5 µM: [30]
inactive: [56] 19.5 µM | [1] 46.2 µM | [2] 38 µM | [3] 19.2 µM | [4] 43.5 µM | [6] 87.9 µM | [7] 41.9 µM | [9] 17.6 µM | [10] 25.3 µM | [11] 54.7 µM | [12] 25.9 µM | [15] 43 µM | [16] > 100 µM | [17] 39.4 µM | [57] 87.1 µM | [18] 41.3 µM | [19] 23.7 µM | [20] > 100 µM | [21] 46.6 µM | [22] > 100 µM | [23] 63.2 µM | [58] > 100 µM | [24] 6.61 µM | [25] 52.1 µM | [26] 39.4 µM | [27] 74.8 µM | [29] 48.4 µM | [31] 19.1 µM | [32] 24.4 µM | [34] 55.2 µM | [35] 23 µM | [36] 56.9 µM | [39] 27.3 µM | [40] 33 µM | [41] > 100 µM | [42] 33.7 µM | [43] 60.3 µM | [44] > 100 µM | [45] 28.4 µM | [46] > 100 µM | [47] > 100 µM | [48] 23.1 µM | [49] 11.1 µM | [50] 22.8 µM | [51] 92.3 µM | [52] 11.2 µM | [53] > 100 µM | [54] 21.9 µM | [55] 67 µM

CN(C)/N=N/c1nc2c(c(=O)n(C)c(=O)n2C)n1CC1CO1 (stereo not given)
inactive: [56] 4 µM | [1] 8.43 µM | [2] 16.6 µM | [3] 23.8 µM | [4] 11.7 µM | [5] 23.8 µM | [6] 15.7 µM | [7] 15 µM | [8] 12.4 µM | [9] 14.1 µM | [10] 12.5 µM | [11] 19.9 µM | [12] 2.88 µM | [13] 14.5 µM | [14] 14.3 µM | [15] 19.9 µM | [16] 8.51 µM | [17] 13.4 µM | [57] 11.6 µM | [18] 14.5 µM | [19] 17 µM | [20] 12.2 µM | [21] 16.9 µM | [22] 17.1 µM | [23] 32 µM | [24] 19.2 µM | [25] 15.8 µM | [26] 20.7 µM | [27] 14.4 µM | [28] 10.7 µM | [29] 13.9 µM | [31] 12.9 µM | [32] 13.6 µM | [33] 15.7 µM | [34] 16.6 µM | [35] 10.1 µM | [36] 16.6 µM | [37] 12.7 µM | [38] 17.2 µM | [39] 11.7 µM | [40] 9.18 µM | [41] 11.9 µM | [42] 22.4 µM | [43] 11.7 µM | [44] 15.8 µM | [46] 12.1 µM | [47] 20.7 µM | [48] 16.7 µM | [49] 20 µM | [50] 5.38 µM | [52] 12.3 µM | [53] 18.4 µM | [54] 10.8 µM | [55] 7.1 µM
14.2 µM: [30]
